Source: patent US20030078274A1, “Method of reducing neuronal injury or apoptosis” (priority 1999, published 2003)

Test system: retinal ganglion cells (RGCs)
Experiment: Optic nerve axotomy model of glaucoma: RGC survival in vivo
Parameters: species or system Long-Evans rats
Description: As a model for studying treatment of glaucoma, damaged (axotomized) retinal ganglion cells were employed. Specifically, transection of the optic nerve close to the cell body causes apoptotic death of retinal ganglion cells (RGCs), similar to that found in glaucoma. […] Three days later, the left optic nerve was intraorbitally transected 1 mm from the globe. One day after axotomy, no remarkable change in the fluorescence pattern of RGCs was seen compared to that of controls. RGC density, as assessed by the number of fluorescently-labeled cells, began to decline between 4 and 7 days post axotomy. By 14 days, a substantial number of fluorescently-labeled RGCs appeared to have been lost. Morphologically, in whole-mounted retinas stained with cresyl violet, ganglion cell layer (GCL) of unlesioned control retinas manifest no apoptotic profiles or pyknotic nuclei. In contrast, by 10 days after axotomy, multiple degenerating cell bodies with pyknotic nuclei were apparent in the GCL, and the cell density in this layer appeared to be greatly diminished. When hydroxystilbamidine fluorescence in the GCL was quantified, in unlesioned control retinas the mean RGC density was 2533±104 cells/mm^2 (mean±SD). Within 14 days of axotomy, the mean RGC density decreased to 348±107 (14% of control).
One day after axotomy, activated (di-phosphorylated) p38 was visualized by immunocytochemistry in the RGC layer, but not in control retinas. By Western blotting, phosphorylated p38 was first detected 12 hours after axotomy and reached a maximum at 24 hours before decreasing. SB 203580 was administered intravitreally at the time of axotomy, and repeated at 5 days and 10 days.
Retrograde labeling of retinal ganglion cells. Adult male Long-Evans rats weighing 200 to 250 g were obtained from a local breeder and, for all experimental manipulations, were anesthetized with 1-2% isoflurane and 70% N2O. RGCs were retrogradely labeled with hydroxystilbamidine (Molecular Probes, Eugene, Oreg., also known as Fluoro-Gold™) to allow accurate counting of cell bodies as described in Vorwerk et al., Invest. Ophthalmol. Vis. Sci. 40:813-816. Rats were anesthetized and placed in a small stereotactic instrument. The skull was exposed and kept dry. The bregma was identified and marked, and a small window was drilled above the right hemisphere, leaving the dura intact.
Axotomy. Optic nerve axotomy was performed on the left eye 4 days after retrograde labeling. After incision of the dorsolateral conjunctiva, the lateral extraocular muscle was transected, and the optic nerve was exposed under a stereoscopic microscope. The optic nerve was then transected at a distance of about 1 mm from the eye bulb. During the operation, care was taken to avoid damage to the retinal blood supply.
Drug application. Intravitreal injections were carried out using a 33-gauge needle attached to a 25 μl syringe following pupil dilation with 1% atropine sulfate. The tip of the needle was inserted through the dorsal limbus of the eye under stereomicroscopic visualization. Injections were completed over a period of 1 min. Intravitreal injections of SB 203580 (Calbiochem, San Diego, Calif.), MK801 (Research Biochemicals International, Natick, Mass.) or control solutions (as an equal volume of saline diluent) were performed on operated eyes immediately after axotomy, and repeated 5 and 10 days post axotomy.
Quantification of axotomized RGC survival and histology. […]

C[S+]([O-])c1ccc(-c2nc(-c3ccc(F)cc3)c(-c3ccncc3)[nH]2)cc1 (stereo not shown) [SB 203580, 4-(4-fluorophenyl)-2-(4-methylsulfinylphenyl)-5-(4-pyridyl)-1H-imidazole]
neuroprotection of RGCs (0.2 nmol intravitreal (corresponding to 1.6 μM), 14 days post axotomy): significant degree of neuroprotection | number of surviving RGCs (10 nmol intravitreal, 14 days post axotomy, axotomy alone 348, control 2,511): 1,347 cells/mm^2 | number of surviving RGCs (14 days post axotomy, intravitreal at axotomy, 5 and 10 days, dose series): increased the number of surviving RGCs in a dose-dependent manner | RGC protection on addition to MK801, compared with MK801 alone (SB 203580 added to MK801, intravitreal, axotomy): did not offer further protection
